# Measurements as given in US20050143468A1, “Method of treating vascular endothelial growth factor mediated vascular disorders” (priority 2002, published 2005).
# Tested on: choroidal neovascularization
# Assay: choroidal NV in a mouse model, topical administration
# Type: in vivo
# Conditions: applicant's previous findings
structure (smiles),measurement,value
NC(=O)Cc1cccc(C(=O)c2ccccc2)c1N [nepafenac],choroidal NV,inhibited
